Several values for one entry are separate records, joined by “and”; a condition that tells them apart may be missing. Equal entries are not always repeated.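 Dose response: 5 concentrations. Exposure: 48 h. Format: 96-well plates. Endpoint: linear interpolation; highest concentration if not reached. GI50 marks 50% less growth.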 Activity calls are given as the source filed them. Cut-off read from the data, not from the text of the source: active = GI50 up to about 1.1 µM and inactive = higher.
What was measured:
Assay in all cases: NCI anticancer screen, dose series, 48 h
PC-3 = test system: PC-3
HL-60 = test system: HL-60
M14 = test system: M14
MOLT-4 = test system: MOLT-4
LOX IMVI = test system: LOX IMVI
SF-295 = test system: SF-295
SN12C = test system: SN12C
HCT-15 = test system: HCT-15
NCI-H522 = test system: NCI-H522
U-251 = test system: U-251
SNB-19 = test system: SNB-19
NCI/ADR-RES = test system: NCI/ADR-RES
NCI-H226 = test system: NCI-H226
OVCAR-4 = test system: OVCAR-4
UO-31 = test system: UO-31

Row | Compound | GI50 (PC-3) | GI50 (HL-60) | GI50 (M14) | GI50 (MOLT-4) | GI50 (LOX IMVI) | GI50 (SF-295) | GI50 (SN12C) | GI50 (HCT-15) | GI50 (NCI-H522) | GI50 (U-251) | GI50 (SNB-19) | GI50 (NCI/ADR-RES) | GI50 (NCI-H226) | GI50 (OVCAR-4) | GI50 (UO-31)
1 | COc1ccc(C(=O)/C=C/c2ccc(OCCSCCCCCCCCCCSCCOc3ccc(/C=C/C(=O)c4ccc(OC)c(OC)c4)cc3)cc2)cc1OC | > 100 µM (inactive) | > 100 µM (inactive) | > 100 µM (inactive) | > 100 µM (inactive) | > 100 µM (inactive) | > 100 µM (inactive) | > 100 µM (inactive) | > 100 µM | 73.8 µM (inactive) |  |  |  |  |  | 
2 | CCC(CCCCC1CC[C@H]2CC(=O)C[C@@H]12)OC (stereo partly specified) |  | 36.7 µM (inactive) |  | > 100 µM (inactive) | > 100 µM (inactive) | > 100 µM (inactive) | > 100 µM (inactive) | > 100 µM | > 100 µM (inactive) | > 100 µM (inactive) | > 100 µM (inactive) | 71.1 µM (inactive) | > 100 µM (inactive) |  | 
3 | O=C(/C=C1\Nc2ccc([N+](=O)[O-])cc2N=C1NC12CC3CC(CC(C3)C1)C2)c1ccccc1 | > 10 µM (inactive) |  | > 10 µM (inactive) |  | > 10 µM (inactive) | > 10 µM (inactive) | > 10 µM (inactive) | > 10 µM | > 10 µM (inactive) | 7.16 µM (inactive) |  | > 10 µM (inactive) | 5.5 µM (inactive) | 3.96 µM (inactive) | > 10 µM (inactive)
4 | CCOc1ccccc1-c1nc2c(s1)C(=O)c1ccccc1C2=O | 12 µM (inactive) | 1.92 µM (inactive) | 15.7 µM (inactive) | 3.53 µM (inactive) | 4.37 µM (inactive) | 12.6 µM (inactive) | 18.4 µM (inactive) | 25.7 µM | 11.8 µM (inactive) | 14.6 µM (inactive) | 25.8 µM (inactive) |  |  | 9.68 µM (inactive) | 12.6 µM (inactive)
5 | O=C1/C(=C/c2ccco2)NC(=S)N1CN1CCCCC1 | > 100 µM (inactive) |  | 99.3 µM (inactive) | > 100 µM (inactive) | 33.7 µM (inactive) | > 100 µM (inactive) | > 100 µM (inactive) | 28.6 µM | > 100 µM (inactive) | > 100 µM (inactive) | 22.6 µM (inactive) | 10.5 µM (inactive) | 54.1 µM (inactive) | 13.3 µM (inactive) | 26.9 µM (inactive)
6 | O=C(NN=C1CCN(Cc2ccccc2)CC1)C(O)(c1ccccc1)c1ccccc1 |  | > 100 µM (inactive) | > 100 µM (inactive) | > 100 µM (inactive) | > 100 µM (inactive) | > 100 µM (inactive) | > 100 µM (inactive) | > 100 µM |  | > 100 µM (inactive) | > 100 µM (inactive) | > 100 µM (inactive) | > 100 µM (inactive) | > 100 µM (inactive) | > 100 µM (inactive)
7 | O=c1[nH]nc(Cc2ccccc2)n1O |  | > 100 µM (inactive) |  | > 100 µM (inactive) | > 100 µM (inactive) | > 100 µM (inactive) | > 100 µM (inactive) |  | > 100 µM (inactive) | > 100 µM (inactive) | > 100 µM (inactive) | > 100 µM (inactive) | > 100 µM (inactive) | > 100 µM (inactive) | > 100 µM (inactive)
8 | COC(=O)[C@@H]1CC(C(C[N+](=O)[O-])c2ccc(O[Si](C)(C)C(C)(C)C)cc2)C(=O)N1C(=O)OC(C)(C)C (stereo partly specified) |  |  | 52.5 µM (inactive) |  | > 100 µM (inactive) | > 100 µM (inactive) and 59.2 µM (inactive) | 43.6 µM (inactive) and 69.8 µM (inactive) |  | 53.2 µM (inactive) and 60.5 µM (inactive) | > 100 µM (inactive) and 78 µM (inactive) | > 100 µM (inactive) |  |  | 53.6 µM (inactive) and 29.6 µM (inactive) | 32.7 µM (inactive) and 60.7 µM (inactive)
9 | Cc1cc(C)c(O)c(Cc2cccc(Cc3cc(C)cc(C)c3O)c2O)c1 | > 100 µM (inactive) |  | > 100 µM (inactive) | > 100 µM (inactive) | > 100 µM (inactive) | > 100 µM (inactive) | > 100 µM (inactive) | > 100 µM | > 100 µM (inactive) | > 100 µM (inactive) | > 100 µM (inactive) | > 100 µM (inactive) |  | > 100 µM (inactive) | > 100 µM (inactive)
